Legend:
Format in all cases: in vivo
[1] = system: slender amaranth (Amaranthus viridis L.); assay: Test Example 2: herbicidal effect by soil application to upland field; conditions: soil surface spray, upland field soil, 1,000 g active ingredient per hectare, 21st day after application
How it was run: (§1)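 In this soil-application test, sown and soil-covered pots are sprayed uniformly with the formulation diluted in water, giving 1,000 g of active ingredient per ha in a volume of 1,000 L per ha. Plants then grow in a greenhouse for 21 days before herbicidal scoring by a standard scale.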

[2] = system: green foxtail (Setaria viridis (L.) P. Beauv.); assay: as above; conditions: soil surface spray, upland field soil, 1,000 g active ingredient per hectare, 21st day after application
How it was run: as §1

[3] = system: barnyardgrass (Echinochloa crus-galli (L.) P. Beauv. var. crus-galli); assay: as above; conditions: soil surface spray, upland field soil, 1,000 g active ingredient per hectare, 21st day after application
How it was run: as §1

[4] = system: velvetleaf (Abutilon theophrasti medicus); assay: as above; conditions: soil surface spray, upland field soil, 1,000 g active ingredient per hectare, 21st day after application
How it was run: as §1

[5] = system: early watergrass (Echinochloa oryzicola Vasing); assay: Test Example 1: herbicidal effect by soil application to paddy field; conditions: paddy field soil application; active ingredient 1,000 g per 1 hectare; wettable powder added dropwise to water surface the day after sowing; examined on the 21st day after application
How it was run: (§2)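 Plants were sown in flooded (3 cm) paddy soil and evaluated for herbicidal effect 21 days after soil application in a greenhouse.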

[6] = system: Japanese bulrush (Scirpus juncoides Roxb.); assay: as above; conditions: paddy field soil application; active ingredient 1,000 g per 1 hectare; wettable powder added dropwise to water surface the day after sowing; examined on the 21st day after application
How it was run: as §2

[7] = system: heartshape false pickerelweed (Monochoria vaginalis (Burm.f.) C.Presl); assay: as above; conditions: paddy field soil application; active ingredient 1,000 g per 1 hectare; wettable powder added dropwise to water surface the day after sowing; examined on the 21st day after application
How it was run: as §2

[8] = system: slender amaranth (Amaranthus viridis L.); assay: Test Example 3: herbicidal effect by application to upland field (foliage treatment); conditions: foliage treatment, 1,000 g active ingredient per 1 hectare, 14th day after application, greenhouse
How it was run: (§3)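 Post-emergence spray at 1,000 g AI/ha of wettable powder in water (1,000 L/ha), onto seedlings grown 2 weeks in greenhouse field-soil pots. Graded day 14.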

[9] = system: green foxtail (Setaria viridis (L.) P. Beauv.); assay: as above; conditions: foliage treatment, 1,000 g active ingredient per 1 hectare, 14th day after application, greenhouse
How it was run: as §3

[10] = system: barnyardgrass (Echinochloa crus-galli (L.) P. Beauv. var. crus-galli); assay: as above; conditions: foliage treatment, 1,000 g active ingredient per 1 hectare, 14th day after application, greenhouse
How it was run: as §3

[11] = system: velvetleaf (Abutilon theophrasti medicus); assay: as above; conditions: foliage treatment, 1,000 g active ingredient per 1 hectare, 14th day after application, greenhouse
How it was run: as §3

SMILES	herbicidal effect (index), Slender Amaranth [1]	herbicidal effect (index), Green Foxtail [2]	herbicidal effect (index), Barnyardgrass [3]	herbicidal effect (index), Velvetleaf [4]	herbicidal effect, Echinochloa oryzicola Vasing [5]	herbicidal effect, Scirpus juncoides Roxb. [6]	herbicidal effect, Monochoria vaginalis (Burm. f.) C. Presl [7]	herbicidal effect, Slender Amaranth [8]	herbicidal effect, Green Foxtail [9]	herbicidal effect, Barnyardgrass [10]	herbicidal effect, Velvetleaf [11]
CCCn1c(C(F)(F)F)ccc(C(=O)c2cnn(C)c2O)c1=O [IV-3]	5 (90% or more of herbicidal effect and crop phytotoxicity)	5 (90% or more of herbicidal effect and crop phytotoxicity)	5 (90% or more of herbicidal effect and crop phytotoxicity)	5 (90% or more of herbicidal effect and crop phytotoxicity)	5 (90% or more of herbicidal effect and crop phytotoxicity)	5 (90% or more of herbicidal effect and crop phytotoxicity)	5 (90% or more of herbicidal effect and crop phytotoxicity)	5 (90% or more of herbicidal effect and crop phytotoxicity)	5 (90% or more of herbicidal effect and crop phytotoxicity)	5 (90% or more of herbicidal effect and crop phytotoxicity)	5 (90% or more of herbicidal effect and crop phytotoxicity)
CCCn1c(C(F)(F)F)ccc(C(=O)c2cnn(C)c2OC(=O)c2ccccc2)c1=O [IV-4]	5 (90% or more of herbicidal effect and crop phytotoxicity)	5 (90% or more of herbicidal effect and crop phytotoxicity)	5 (90% or more of herbicidal effect and crop phytotoxicity)	5 (90% or more of herbicidal effect and crop phytotoxicity)	5 (90% or more of herbicidal effect and crop phytotoxicity)	5 (90% or more of herbicidal effect and crop phytotoxicity)	5 (90% or more of herbicidal effect and crop phytotoxicity)	5 (90% or more of herbicidal effect and crop phytotoxicity)	4 (70 to less than 90% of herbicidal effect and crop phytotoxicity)	5 (90% or more of herbicidal effect and crop phytotoxicity)	5 (90% or more of herbicidal effect and crop phytotoxicity)
CCCCn1c(C(F)(F)F)ccc(C(=O)c2cnn(C)c2O)c1=O [IV-6]	5 (90% or more of herbicidal effect and crop phytotoxicity)	5 (90% or more of herbicidal effect and crop phytotoxicity)	5 (90% or more of herbicidal effect and crop phytotoxicity)	5 (90% or more of herbicidal effect and crop phytotoxicity)	5 (90% or more of herbicidal effect and crop phytotoxicity)	5 (90% or more of herbicidal effect and crop phytotoxicity)	5 (90% or more of herbicidal effect and crop phytotoxicity)	5 (90% or more of herbicidal effect and crop phytotoxicity)	5 (90% or more of herbicidal effect and crop phytotoxicity)	5 (90% or more of herbicidal effect and crop phytotoxicity)	5 (90% or more of herbicidal effect and crop phytotoxicity)
CCC(C)n1c(C(F)(F)F)ccc(C(=O)c2cnn(C)c2O)c1=O (stereo not shown) [IV-8]	5 (90% or more of herbicidal effect and crop phytotoxicity)	5 (90% or more of herbicidal effect and crop phytotoxicity)	5 (90% or more of herbicidal effect and crop phytotoxicity)	5 (90% or more of herbicidal effect and crop phytotoxicity)	5 (90% or more of herbicidal effect and crop phytotoxicity)	5 (90% or more of herbicidal effect and crop phytotoxicity)	5 (90% or more of herbicidal effect and crop phytotoxicity)	5 (90% or more of herbicidal effect and crop phytotoxicity)	4 (70 to less than 90% of herbicidal effect and crop phytotoxicity)	5 (90% or more of herbicidal effect and crop phytotoxicity)	5 (90% or more of herbicidal effect and crop phytotoxicity)
CCCS(=O)(=O)Oc1c(C(=O)c2ccc(C(F)(F)F)n(CC(F)(F)F)c2=O)cnn1C [IV-10]	5 (90% or more of herbicidal effect and crop phytotoxicity)	5 (90% or more of herbicidal effect and crop phytotoxicity)	5 (90% or more of herbicidal effect and crop phytotoxicity)	5 (90% or more of herbicidal effect and crop phytotoxicity)	5 (90% or more of herbicidal effect and crop phytotoxicity)	5 (90% or more of herbicidal effect and crop phytotoxicity)	5 (90% or more of herbicidal effect and crop phytotoxicity)	5 (90% or more of herbicidal effect and crop phytotoxicity)	4 (70 to less than 90% of herbicidal effect and crop phytotoxicity)	5 (90% or more of herbicidal effect and crop phytotoxicity)	4 (70 to less than 90% of herbicidal effect and crop phytotoxicity)
C=CCn1c(C(F)(F)F)ccc(C(=O)c2cnn(C)c2O)c1=O [IV-11]	5 (90% or more of herbicidal effect and crop phytotoxicity)	4 (70 to less than 90% of herbicidal effect and crop phytotoxicity)	5 (90% or more of herbicidal effect and crop phytotoxicity)	5 (90% or more of herbicidal effect and crop phytotoxicity)	5 (90% or more of herbicidal effect and crop phytotoxicity)	5 (90% or more of herbicidal effect and crop phytotoxicity)	5 (90% or more of herbicidal effect and crop phytotoxicity)	5 (90% or more of herbicidal effect and crop phytotoxicity)	5 (90% or more of herbicidal effect and crop phytotoxicity)	5 (90% or more of herbicidal effect and crop phytotoxicity)	5 (90% or more of herbicidal effect and crop phytotoxicity)
Cn1ncc(C(=O)c2ccc(C(F)(F)F)n(C3CC3)c2=O)c1O [IV-18]	5 (90% or more of herbicidal effect and crop phytotoxicity)	5 (90% or more of herbicidal effect and crop phytotoxicity)	5 (90% or more of herbicidal effect and crop phytotoxicity)	5 (90% or more of herbicidal effect and crop phytotoxicity)	5 (90% or more of herbicidal effect and crop phytotoxicity)	5 (90% or more of herbicidal effect and crop phytotoxicity)	5 (90% or more of herbicidal effect and crop phytotoxicity)	5 (90% or more of herbicidal effect and crop phytotoxicity)	5 (90% or more of herbicidal effect and crop phytotoxicity)	5 (90% or more of herbicidal effect and crop phytotoxicity)	5 (90% or more of herbicidal effect and crop phytotoxicity)
CCCS(=O)(=O)Oc1c(C(=O)c2ccc(C(F)(F)F)n(C3CC3)c2=O)cnn1C [IV-19]	5 (90% or more of herbicidal effect and crop phytotoxicity)	5 (90% or more of herbicidal effect and crop phytotoxicity)	5 (90% or more of herbicidal effect and crop phytotoxicity)	5 (90% or more of herbicidal effect and crop phytotoxicity)	5 (90% or more of herbicidal effect and crop phytotoxicity)	5 (90% or more of herbicidal effect and crop phytotoxicity)	5 (90% or more of herbicidal effect and crop phytotoxicity)	5 (90% or more of herbicidal effect and crop phytotoxicity)	5 (90% or more of herbicidal effect and crop phytotoxicity)	5 (90% or more of herbicidal effect and crop phytotoxicity)	5 (90% or more of herbicidal effect and crop phytotoxicity)
